Assay results from PMC8040053 (ACS Medicinal Chemistry Letters, 2021).
pIC50: −log10 of the molar value.

Tests used:
HDAC3 [1] = molecular target: T1, HDAC3 (Homo sapiens, UniProt O15379); experiment: HDAC3 progress curve analysis / jump dilution; type: biochemical; details: HDAC3, linear progress curves
HDAC3 [2] = molecular target: T1, HDAC3; experiment: HDAC3 inhibition assay; type: biochemical; details: for HDAC3 LBE: HDAC3-derived ligand binding efficiency
[3] = Lead profiling panel of 115 biochemical and binding assays at Eurofins Panlabs; details: 115-assay panel

T1 sequence (O15379 whole entry): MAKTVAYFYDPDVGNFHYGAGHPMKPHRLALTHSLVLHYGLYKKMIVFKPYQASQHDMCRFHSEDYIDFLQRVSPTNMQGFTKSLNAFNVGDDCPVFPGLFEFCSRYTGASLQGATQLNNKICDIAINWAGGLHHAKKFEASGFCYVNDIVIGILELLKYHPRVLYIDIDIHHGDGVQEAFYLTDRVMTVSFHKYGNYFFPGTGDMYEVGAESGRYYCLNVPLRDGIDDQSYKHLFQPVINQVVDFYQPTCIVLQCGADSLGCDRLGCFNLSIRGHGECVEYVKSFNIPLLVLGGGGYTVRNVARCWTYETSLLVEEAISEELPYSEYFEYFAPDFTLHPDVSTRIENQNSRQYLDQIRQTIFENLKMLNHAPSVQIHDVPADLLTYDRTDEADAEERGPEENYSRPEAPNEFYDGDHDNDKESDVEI
T1 sequence (Q9Y618 1-899 partner limits assumed): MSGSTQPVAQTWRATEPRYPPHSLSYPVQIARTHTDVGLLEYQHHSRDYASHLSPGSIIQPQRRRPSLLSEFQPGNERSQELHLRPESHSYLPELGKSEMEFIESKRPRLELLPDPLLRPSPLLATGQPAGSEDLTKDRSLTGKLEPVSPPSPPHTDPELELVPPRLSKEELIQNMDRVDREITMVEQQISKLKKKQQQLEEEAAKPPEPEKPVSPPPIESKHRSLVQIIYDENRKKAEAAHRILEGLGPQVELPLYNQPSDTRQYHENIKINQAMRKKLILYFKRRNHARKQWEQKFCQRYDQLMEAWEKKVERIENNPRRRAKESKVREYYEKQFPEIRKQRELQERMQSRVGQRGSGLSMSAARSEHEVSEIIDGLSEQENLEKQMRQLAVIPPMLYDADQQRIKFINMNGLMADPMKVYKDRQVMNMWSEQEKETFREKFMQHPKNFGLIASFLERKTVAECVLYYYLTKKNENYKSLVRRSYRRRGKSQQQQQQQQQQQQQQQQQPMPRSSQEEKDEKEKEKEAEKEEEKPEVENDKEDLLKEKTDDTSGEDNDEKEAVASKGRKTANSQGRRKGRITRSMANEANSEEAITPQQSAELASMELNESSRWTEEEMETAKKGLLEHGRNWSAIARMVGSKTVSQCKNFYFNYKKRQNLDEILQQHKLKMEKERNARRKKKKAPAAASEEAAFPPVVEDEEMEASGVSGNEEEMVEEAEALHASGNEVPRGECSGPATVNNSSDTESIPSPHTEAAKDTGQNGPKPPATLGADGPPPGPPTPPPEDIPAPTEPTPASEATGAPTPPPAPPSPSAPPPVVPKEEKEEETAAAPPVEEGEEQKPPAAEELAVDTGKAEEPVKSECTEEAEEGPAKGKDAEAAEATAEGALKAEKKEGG

Compound	inhibition kinetics mechanism (HDAC3 [1])	HDAC3 LBE (HDAC3 [2])	selectivity for HDAC inhibition over off-target hits [3]	pIC50 (HDAC3 [2]; read-out: HDAC3 IC50, Table 3)
CCCC[C@H](NC(=O)C1CN(C)C1)c1ncc(-c2cc3ccccc3nc2OC)[nH]1 [Compound 12]	fast-on/fast-off kinetics			
CCCC[C@H](NC(=O)[C@H](C)c1c(C)[nH]c2ccc(O)cc12)c1ncc(-c2cc3ccccc3nc2OC)[nH]1 [Compound 19]	fast-on/fast-off kinetics	0.25	10–1000 fold	
CCCC[C@H](NC(=O)[C@H](C)c1c(C)[nH]c2ccc(OC)cc12)c1ncc(-c2cc3ccccc3nc2OC)[nH]1 [Compound 20]		0.25		
CCCC[C@H](NC(=O)[C@H](CN)c1c(C)[nH]c2ccc(OC)cc12)c1ncc(-c2cc3ccccc3nc2OC)[nH]1 [Compound 21]				7.74
